Test results: ChEMBL document CHEMBL5543072, “Discovery of a novel lead characterized by a stilbene-extended scaffold against sepsis as soluble epoxide hydrolase inhibitors” (Eur J Med Chem, 2024)

Legend:
[1] = tested on: Mus musculus; assay: Protection against LPS-induced sepsis in C57BL/6J mouse model assessed as survival rate at 0.05 mg/kg, iv measured after 48 hrs relative to control; format: functional
[2] = Apparent volume of distribution in Sprague-Dawley rat at 5 mg/kg, iv measured after 24 hrs; format: ADME, organism-based; conditions: in vivo, read-out: Vz
[3] = tested on: Mus musculus; assay: Anti-inflammatory activity in LPS-induced C57BL/6J mouse model of sepsis assessed as IL-6 in serum at 5 mg/kg, ip preadministered with compound for 24 hrs followed by LPS administration and measured after 3 hrs by ELISA (reference value: 17292 pg/ml); format: functional; conditions: time 27 hrs
[4] = Tmax in Sprague-Dawley rat at 20 mg/kg, po measured after 24 hrs; format: ADME, organism-based; conditions: in vivo
[5] = tested on: Mus musculus; assay: Anti-inflammatory activity in LPS-induced C57BL/6J mouse model of sepsis assessed as TNF-alpha in serum at 5 mg/kg, ip preadministered with compound for 24 hrs followed by LPS administration and measured after 3 hrs by ELISA (reference value: 282 pg/ml); format: functional; conditions: time 27 hrs
[6] = tested on: Mus musculus; assay: Protection against LPS-induced sepsis in C57BL/6J mouse model assessed as survival rate at 5 mg/kg, iv measured after 48 hrs relative to control; format: functional
[7] = Tmax in Sprague-Dawley rat at 5 mg/kg, iv measured after 24 hrs; format: ADME, organism-based; conditions: in vivo
[8] = Oral bioavailability in Sprague-Dawley rat at 20 mg/kg measured after 24 hrs; format: ADME, organism-based; conditions: in vivo
[9] = AUC (0 to 24 hrs) in C57BL/6J mouse liver at 5 mg/kg, ip measured after 24 hrs by LC-MS/MS analysis; format: ADME, organism-based; conditions: in vivo
[10] = AUC (0 to 24 hrs)in C57BL/6J mouse blood at 5 mg/kg, ip measured after 24 hrs by LC-MS/MS analysis; format: ADME, organism-based
[11] = Cytotoxicity in HEK293T cells assessed as cell viability at 5 uM incubated for 48 hrs by CCK8 assay relative to control; format: toxicity, cell-based, HEK-293T; conditions: human, read-out: Activity
[12] = in vivo; conditions: C57BL/6J, mouse, other tissue, ip, 5 mg/kg
Description: Ratio of AUC (0 to 24 hrs)in C57BL/6J mouse liver to blood at 5 mg/kg, ip measured after 24 hrs by LC-MS/MS analysis

[13] = Half-life in Sprague-Dawley rat at 20 mg/kg, po measured after 24 hrs; format: ADME, organism-based; conditions: in vivo
[14] = tested on: Mus musculus; assay: Protection against LPS-induced sepsis in C57BL/6J mouse model assessed as survival rate at 0.05 mg/kg, iv measured after 24 hrs relative to control; format: functional
[15] = tested on: Mus musculus; assay: Protection against LPS-induced sepsis in C57BL/6J mouse model assessed as survival rate at 0.5 mg/kg, iv measured after 48 hrs relative to control; format: functional

SMILES: O=C(Cc1ccccn1)Nc1cccc(/C=C/c2ccc(NC(=O)NCC3CCOCC3)cc2)c1
- survival at 0.05 mg/kg [1]: 10%
- Vd [2]: 10.8 L/kg
- Activity [3]: 15627 pg/mL
- Tmax [4]: 30 min
- Activity [5]: 242 pg/mL
- survival at 5 mg/kg [6]: 40%
- Tmax [7]: 4.8 min
- bioavailability [8]: 5.1%
- AUC [9]: 21370 ng·h/g
- AUC(0-t) at 24 h [10]: 122 ng·h/mL
- viability at 48 h, 5 µM [11]: 82.9%
- Kp at 24 h [12]: 175
- half-life [13]: 131 min
- survival at 0.05 mg/kg [14]: 30%
- survival at 0.5 mg/kg [15]: 40%
